Series [1] has as its system Microbotryum violaceum. The experiment in a line: Antifungal activity against Microbotryum violaceum at 50 ug/disk. Type of series: functional, organism-based.
Series [2] deals with Neutrophil elastase (Homo sapiens) (UniProt P08246). Kind of series: Inhibition of human neutrophil elastase at 100 uM.
The subject of series [3] is NCI-H460. The experiment in a line: Cytotoxicity against human NCI-H460 cells at 100 uM after 48 hrs by sulforhodamine B assay. It counts as functional, cell-based.
For series [4], the system named is Plasmodium berghei. The experiment in a line: Antiplasmodial activity against Plasmodium berghei sporozoites expressing GFP infected in hepatocytes at 25 uM by flow cytometry. Particulars: Hepatocyte. It counts as functional, organism-based. (In general: A flow cytometer gives signals particle by particle.)
For series [5], the system named is SF-268. The experiment in a line: Cytotoxicity against human SF268 cells at 100 uM after 48 hrs by sulforhodamine B assay. Type of series: functional, cell-based. (Sulforhodamine B stains cellular protein and so reports cell mass.)
Series [6] concerns Human gammaherpesvirus 4. Kind of series: Antiviral activity against Epstein-Barr virus at 100 ug/ml. It counts as functional, organism-based.
The test system of series [7] is Human immunodeficiency virus 2. The experiment in a line: Antiviral activity against HIV2 infected in human MT4 cells assessed as inhibition of virus-induced cytopathogenic effect at 50 ug/ml after 5 days by MTT assay. Type of series: functional, organism-based. (In general: Damage to the host cells serves as the signal in cytopathic effect assays.)
Series [8] deals with Influenza A virus. The experiment in a line: Antiviral activity against influenza A H5N1 subtype at 100 ug/ml. It counts as functional, organism-based.
Series [9] deals with Human immunodeficiency virus 1. The experiment in a line: Antiviral activity against HIV1 infected in human MT4 cells assessed as inhibition of virus-induced cytopathogenic effect at 50 ug/ml after 5 days by MTT assay. Type of series: functional, organism-based.
In series [10] the test system is MCF7. The experiment in a line: Cytotoxicity against human MCF7 cells at 100 uM after 48 hrs by sulforhodamine B assay. It counts as functional, cell-based.
In series [11] the target is Cyclin-dependent kinase 5 (Homo sapiens) (UniProt Q00535). Kind of series: Inhibition of CDK5 at […].
The subject of series [12] is SARS-CoV. The experiment in a line: Antiviral activity against SARS virus infected in african green monkey Vero76 cells assessed as inhibition of virus-induced cytopathogenic effect at 100 ug/ml after 3 days by neutral red uptake assay. Type of series: functional, organism-based. Particulars: Severe acute respiratory syndrome-related coronavirus, Vero 76.
The target in series [13] is Dual specificity tyrosine-phosphorylation-regulated kinase 1A (Homo sapiens) (UniProt Q13627). The experiment in a line: Inhibition of DYRK1A at […].
The test system of series [14] is Escherichia coli. The experiment in a line: Antibacterial activity against Escherichia coli at 50 ug/disk. Type of series: functional, organism-based.
Series [15] has as its system Aspergillus ruber. The experiment in a line: Antifungal activity against Eurotium rubrum at 50 ug/disk. Type of series: functional, organism-based.
For series [16], the system named is Priestia megaterium. Kind of series: Antibacterial activity against Bacillus megaterium at 50 ug/disk. Type of series: functional, organism-based.
The test system of series [17] is [Chlorella] fusca. Kind of series: Antialgal activity against Chlorella fusca at 50 ug/disk. Type of series: functional, organism-based. As to conditions: Scenedesmus fuscus.
Series [18] relates to Influenza B virus. Kind of series: Antiviral activity against influenza B at 100 ug/ml. Type of series: functional, organism-based.
In series [19] the test system is Mycotypha microspora. Kind of series: Antifungal activity against Mycotypha microspora at 50 ug/disk. It counts as functional, organism-based.
The subject of series [20] is 3T3-L1. Kind of series: Inhibition of adipogenesis in mouse 3T3L1 cells assessed as triglyceride accumulation at 100 ug/ml after 7 days relative to control. Type of series: functional. Also on record: scale not given: the % may be the effect or the level left.
Series [21] in a line: Cytotoxicity against mouse 3T3L1 cells assessed as cell viability at 50 ug/ml after 7 days relative to control. It counts as cell-based. As to conditions: 3T3-L1 cells, read-out: Activity.
Series [22] deals with 3T3-L1. Kind of series: Cytotoxicity against mouse 3T3L1 cells assessed as cell viability after 7 days. Type of series: cell-based. As to conditions: 3T3-L1, 168 h.
The subject of series [23] is 3T3-L1. The experiment in a line: Inhibition of adipogenesis in mouse 3T3L1 cells assessed as triglyceride accumulation at 50 ug/ml after 7 days relative to control. Type of series: functional. Also on record: scale not given: the % may be the effect or the level left.
Series [24] has as its system 3T3-L1. The experiment in a line: Inhibition of adipogenesis in mouse 3T3L1 cells assessed as triglyceride accumulation after 7 days. It counts as functional, cell-based. Particulars: 3T3-L1, 168 h.
The nature of series [25]: Cytotoxicity against mouse 3T3L1 cells assessed as cell viability at 100 ug/ml after 7 days relative to control. Type of series: cell-based. Particulars: 3T3-L1 cells, read-out: Activity.
The nature of series [26]: Cytotoxicity against mouse 3T3L1 cells assessed as cell viability at 25 ug/ml after 7 days relative to control. It counts as cell-based. As to conditions: 3T3-L1 cells, read-out: Activity.
Series [27] deals with 3T3-L1. Kind of series: Inhibition of adipogenesis in mouse 3T3L1 cells assessed as triglyceride accumulation at 25 ug/ml after 7 days relative to control. Type of series: functional. More on the design: scale not given: the % may be the effect or the level left.
For series [28], the system named is 3T3-L1. The experiment in a line: Inhibition of adipogenesis in mouse 3T3L1 cells assessed as triglyceride accumulation at 4 ug/ml after 7 days relative to control. Type of series: functional. More on the design: scale not given: the % may be the effect or the level left.
Series [29] in a line: Cytotoxicity against mouse 3T3L1 cells assessed as cell viability at 4 ug/ml after 7 days relative to control. It counts as cell-based. As to conditions: 3T3-L1 cells, read-out: Activity.
Series [30] has as its system 3T3-L1. The experiment in a line: Inhibition of adipogenesis in mouse 3T3L1 cells assessed as triglyceride accumulation at 20 ug/ml after 7 days relative to control. It counts as functional. More on the design: scale not given: the % may be the effect or the level left.
Series [31] is described as follows: Cytotoxicity against mouse 3T3L1 cells assessed as cell viability at 20 ug/ml after 7 days relative to control. Type of series: cell-based. Particulars: 3T3-L1 cells, read-out: Activity.

Values after ≈ are worked out from the molar mass of the structure shown. Active and inactive are the calls of the source. The rule behind the calls is not given here.

Chain of Cyclin-dependent kinase 5 (Homo sapiens) (Q00535 whole entry, looked up): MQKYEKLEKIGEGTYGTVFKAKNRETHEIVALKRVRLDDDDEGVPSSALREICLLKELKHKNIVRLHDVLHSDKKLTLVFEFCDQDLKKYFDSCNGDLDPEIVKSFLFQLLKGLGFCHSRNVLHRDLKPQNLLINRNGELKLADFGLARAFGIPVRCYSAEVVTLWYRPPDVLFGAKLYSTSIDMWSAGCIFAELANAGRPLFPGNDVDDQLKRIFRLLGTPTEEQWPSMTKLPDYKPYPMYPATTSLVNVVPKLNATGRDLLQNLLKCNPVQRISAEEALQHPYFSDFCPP
Chain of Neutrophil elastase (Homo sapiens) (P08246 whole entry): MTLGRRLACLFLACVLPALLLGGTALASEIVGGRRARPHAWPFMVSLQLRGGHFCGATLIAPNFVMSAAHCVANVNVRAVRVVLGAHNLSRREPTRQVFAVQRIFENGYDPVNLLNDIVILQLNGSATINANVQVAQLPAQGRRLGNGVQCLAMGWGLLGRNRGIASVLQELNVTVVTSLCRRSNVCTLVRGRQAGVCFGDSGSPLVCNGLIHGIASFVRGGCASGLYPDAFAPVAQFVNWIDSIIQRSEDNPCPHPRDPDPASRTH

Take `CC(C)[C@H]1CC=C(C(=O)O)[C@@H]2CCC(CO)=C[C@H]12`: the result in [1], in series [8], in series [12], in [14], in series [15] and in [16] was inactive. The outcome in series [17], in [18] and in series [19] was inactive. The inhibition entry in series [2], in [3], in series [4], in series [5], in series [6] and in series [7] was “inactive” in each case. Further, the inhibition result in series [9], in [10], in [11] and in [13] was “inactive” each time.

By IC50 is commonly meant the concentration that gives 50% inhibition. Turning to `NC[C@H](O)c1ccc(O)c(O)c1` [NOREPINEPHRINE], the Activity was determined as 33% in series [20], 64% in [23] and 71% in series [27]. Moreover, the viability at 168 h, 50 ug/ml in [21] came out at 102%. Moreover, the IC50 in [22] is more than 100 µg/mL; in series [24], 69 µg/mL (≈ 408 µM). Besides, the viability at 168 h, 100 ug/ml in series [25] is 69%. Further, the viability at 168 h, 25 ug/ml in [26] was found to be 123%.

For `CC1=C[C@H]2[C@@H](CC1)C(C(=O)O)=CC[C@@H]2C(C)(C)O`, the result in [1], in [14], in series [15], in series [16], in series [17] and in series [19] was inactive.

For `CC1=C[C@@H]2[C@@H](C(C)C)CC=C(C(=O)O)[C@@H]2CC1`, the outcome in series [1], in series [14], in [15], in series [16], in series [17] and in [19] was inactive.

Consider `CC1=C[C@@H]2[C@@H](C(C)CO)CC=C(C(=O)O)[C@@H]2CC1` (some centres undefined), for which the result in series [1], in series [14], in series [15], in series [16], in [17] and in series [19] was inactive.

As for `CC1=C[C@@H]2[C@@H](C(C)C)[C@H](O)C=C(C(=O)O)[C@@H]2CC1`, the result in [1], in [14], in series [15], in series [16], in series [17] and in [19] was inactive. The values for the Activity in [20], in series [28] and in series [30] were 26%, 117% and 133%, respectively. Moreover, the IC50 in series [22] worked out at 76 µg/mL (≈ 304 µM); in series [24], 53 µg/mL (≈ 212 µM). In addition, in series [25], the viability at 168 h, 100 ug/ml is 46%. In series [29], the viability at 168 h, 4 ug/ml was determined as 82%. For the same molecule, in [31], the viability at 168 h, 20 ug/ml is 79%.
